Test results as given in patent publication US20080206183A1, “Method of Preparing Grafted Polylysine Dendrimers” (Central national De La Recherche Scientifique, priority 2005, published 2008).

Legend:
[1] = Hydrodynamic range by Taylor diffusion analysis (TDA); type: physicochemical
Procedure: (§1) In order to find the characteristic dimension of the GLDs in solution, the hydrodynamic ranges were determined from the molecular diffusion coefficients by using the Stoke-Einstein ratio:
(§2) where η is the viscosity of the medium, k the Boltzmann constant and T the temperature in K. In order to determine Dm, two experimental methods were used: quasi-elastic or static light diffusion (SLD) (coupled or not coupled with SEC), and the Taylor diffusion method (TDA). This latter method makes it possible to measure the diffusion coefficient of a species from the widening of a solute band under the influence of a hydrodynamic flow the speed profile of which is known to be dispersive (parabolic Poiseuille profile).
(§3) The TDA measurements were carried out using a capillary electrophoresis appliance, using silica capillaries of 50 μm i.d. (60 cm×50 cm up to the detector) the internal surface of which was previously modified by grafting a polycation (poly(diallyl-dimethyl-ammonium)) in order to limit the adsorption of the GLD solutes on the surface of the capillary. Dispersion of the solute band under the influence of the Poiseuille flow was measured using a UV spectrophotometer. The diffusion coefficient was then determined according to the method originally described by Taylor, then repeated by Bello et al.. In parallel to the TDA method, measurements were carried out by SLD, using a zetasizer (Malvern) device. Finally, it was also possible to obtain Rh measurements from the 3D-SEC (Viscotek). All of the numerical data for Rh is shown together in Table 3.

[2] = Hydrodynamic range by quasi-elastic or static light diffusion (SLD); type: physicochemical
Procedure: as §1, §2, §3

[3] = Buffer 1 (H2PO4−Na+ 50 g/L, pH 4.5)
[4] = Buffer 2 (Buffer 1 + 3% acetonitrile)
[5] = Buffer 3 (physiological buffer, pH 7.0)

linear poly-L-Lysine [P1]
Rh (nm) hydrodynamic range [1, 3]: 1.1 nm | Rh (nm) hydrodynamic range [1, 4]: 0.95 nm | Rh (nm) hydrodynamic range [1, 5]: 0.74 nm | Rh (nm) hydrodynamic range [2, 3]: 1.18 nm | Rh (nm) hydrodynamic range [2, 4]: 1.1 nm | Rh (nm) hydrodynamic range [2, 5]: 1.01 nm
